Like-named read-outs stand apart in the source and are kept apart here.
Tests used:
Assay type in all cases: cell-based
human 5-HT7 receptor = target: T1, human 5-HT7 receptor (Homo sapiens, UniProt P34969); experiment: 5HT7 Antagonism Assay (Euroscreen FAST-0499C), cAMP HTRF; settings: CHO-K1 cells expressing human 5-HT7, reference agonist at EC80, cAMP HTRF
T1 construct: host or cells: CHO-K1
Experimental: 5HT7 Antagonism Assay Protocol (Euroscreen FAST-0499C)
CHO-K1 cells expressing the human 5-HT7 receptor, grown prior to the test in media without antibiotic, were detached by gentle flushing with PBS-EDTA (5 mM EDTA), recovered by centrifugation and resuspended in assay buffer (Krebs-Ringer HEPES buffer: 5 mM KCl, 1.25 mM MgSO4, 124 mM NaCl, 25 mM HEPES, 13.3 mM Glucose, 1.25 mM KH2PO4, 1.45 mM CaCl2), 0.5 g/l BSA, supplemented with 1 mM IBMX).
Dose response curves were performed in parallel with reference compounds (e.g., 5-carboxamidotryptamine (5-CT)).
For antagonist testing in a 384 well plate: 5 μl of cells (3000 cells) were mixed with 5 μl of a mix of test compound and reference agonist (for a final assay concentration corresponding to its EC80) diluted in assay buffer. The plates were then incubated for about 30 minutes at about room temperature. After addition of the lysis buffer containing cAMP-d2 and anti-cAMP cryptate detection reagents, plates were incubated for about 1 hour at about room temperature, and fluorescence ratios were measured according to the manufacturer's specifications (HTRF kit: cAMP Gs dynamic kit, Cisbio Bioassays, 62AM4PEJ).
(§1) Compounds were tested at the following nanomolar concentrations, in duplicate: 0.3 nM, 1 nM, 3 nM, 10 nM, 30 nM, 100 nM, 300 nM, 1,000 nM, 3,000 nM, and 10,000 nM.

human TAAR1 receptors = target: T2, human TAAR1 receptors (Homo sapiens, UniProt Q96RJ0); experiment: TAAR1 Agonism Assay: cAMP HTRF assay for Gs coupled receptor TAAR1 (Euroscreen FAST-0987C); settings: CHO-K1 cells expressing human TAAR1, cAMP HTRF
T2 construct: host or cells: CHO-K1
T2 sequence (Q96RJ0 1-339): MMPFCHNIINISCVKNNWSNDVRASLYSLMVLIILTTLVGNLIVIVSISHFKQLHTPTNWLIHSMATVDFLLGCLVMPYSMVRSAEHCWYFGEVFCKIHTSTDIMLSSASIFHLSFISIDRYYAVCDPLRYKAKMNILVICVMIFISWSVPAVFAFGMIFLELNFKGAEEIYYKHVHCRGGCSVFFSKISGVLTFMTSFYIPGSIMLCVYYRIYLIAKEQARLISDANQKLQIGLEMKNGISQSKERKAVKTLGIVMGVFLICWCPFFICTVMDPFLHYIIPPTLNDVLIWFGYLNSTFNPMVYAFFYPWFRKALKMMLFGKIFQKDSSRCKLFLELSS
Experimental: Dose response curves were performed in parallel with the reference compound, tyramine.
For the TAAR1 agonist test (performed in a 384 well plate): 5 μl of cells (about 3,000 cells) were mixed with 5 μl of the test compound diluted in assay buffer and then incubated for about 30 minutes at about room temperature. After addition of the lysis buffer containing cAMP-d2 and anti-cAMP cryptate detection reagents, plates were incubated for about a 1-hour incubation at about room temperature, and fluorescence ratios were measured according to the manufacturer specifications, with the HTRF (Homogeneous Time Resolved Fluorescence) kit (cAMP Gs dynamic kit, Cisbio Bioassays, 62AM4PEJ).
as §1

human 5-HT2A receptor = target: T3, human 5-HT2A receptor (Homo sapiens, UniProt P28223); experiment: 5HT2A Antagonism Assay (Euroscreen FAST-05051), IP-One HTRF
T3 construct: host or cells: CHO-K1
Experimental: 5HT2A Antagonism Assay Protocol (Euroscreen FAST-05051)
CHO-K1 cells expressing the human 5-HT2A receptor grown to mid-log phase in culture media without antibiotics, were detached with PBS-EDTA, centrifuged, and resuspended in the IP-One Gq kit (Cisbio Bioassays, 62IPAPEC) stimulation buffer.
For antagonist testing in a 384 well plate: 5 μl of cells (20,000 cells) were mixed with 5 μl of a mix of test compound and reference agonist (for a final assay concentration corresponding to its EC80) diluted in stimulation buffer. The plate was incubated for 60 minutes at 37° C. in a humidified atmosphere of 95% air with 5% CO2, then 5 μL of IP1-d2 and anti-IP1 cryptate detection reagents were added to each well, the plates were incubated for about 1 hour at about room temperature. Fluorescence ratios are measured according to the manufacturer's specification (IP-One Gq kit (Cisbio Bioassays, 62IPAPEC).
Dose response curves were performed in parallel with reference compounds (e.g., α-methyl-5-HT. Compounds were tested at the following nanomolar concentrations, in duplicate: 0.3 nM, 1 nM, 3 nM, 10 nM, 30 nM, 100 nM, 300 nM, 1,000 nM, 3,000 nM, and 10,000 nM

[1] = 5-HT2A (IC50), CHO-K1 cells expressing human 5-HT2A, reference agonist at EC80, IP-One
[2] = read-out: 5-HT2A (IC50), CHO-K1 cells expressing human 5-HT2A, reference agonist at EC80, IP-One
[3] = CHO-K1 cells expressing human 5-HT2A, reference agonist at EC80, IP-One, read-out: 5-HT2A (IC50)

T3 sequence (P28223 whole entry): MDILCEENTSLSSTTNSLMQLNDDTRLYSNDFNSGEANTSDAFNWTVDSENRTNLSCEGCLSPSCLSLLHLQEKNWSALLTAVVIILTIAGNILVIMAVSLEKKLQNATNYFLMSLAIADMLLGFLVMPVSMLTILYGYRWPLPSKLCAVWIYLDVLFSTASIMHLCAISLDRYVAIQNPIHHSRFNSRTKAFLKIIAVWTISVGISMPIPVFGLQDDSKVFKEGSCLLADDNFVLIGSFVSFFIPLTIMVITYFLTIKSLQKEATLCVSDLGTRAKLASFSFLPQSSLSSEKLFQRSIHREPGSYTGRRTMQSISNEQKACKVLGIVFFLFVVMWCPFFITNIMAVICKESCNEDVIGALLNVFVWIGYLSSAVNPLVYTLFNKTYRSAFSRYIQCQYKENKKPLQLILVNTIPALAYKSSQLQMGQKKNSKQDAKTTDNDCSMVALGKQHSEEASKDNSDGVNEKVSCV
T1 sequence (P34969 whole entry): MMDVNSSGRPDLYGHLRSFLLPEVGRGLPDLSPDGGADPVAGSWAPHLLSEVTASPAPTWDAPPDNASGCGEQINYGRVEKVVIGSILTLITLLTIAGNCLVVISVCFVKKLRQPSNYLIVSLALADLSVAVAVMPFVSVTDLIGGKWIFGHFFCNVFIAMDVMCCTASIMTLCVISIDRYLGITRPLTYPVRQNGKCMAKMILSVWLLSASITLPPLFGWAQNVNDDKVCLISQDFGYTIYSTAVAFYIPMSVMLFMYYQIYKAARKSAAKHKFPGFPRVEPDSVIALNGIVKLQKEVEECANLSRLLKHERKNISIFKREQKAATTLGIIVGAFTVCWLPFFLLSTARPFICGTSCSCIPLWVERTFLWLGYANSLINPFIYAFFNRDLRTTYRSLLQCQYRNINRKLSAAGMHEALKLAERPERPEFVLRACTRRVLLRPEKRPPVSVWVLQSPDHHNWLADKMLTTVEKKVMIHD

Row | SMILES | IC50 (human 5-HT7 receptor) | EC50 (human TAAR1 receptors) | IC50 (human 5-HT2A receptor; [1]) | IC50 (human 5-HT2A receptor; [2]) | IC50 (human 5-HT2A receptor; [3])
1 | NCC1Cc2ccccc2Oc2cc(F)ccc21 (single isomer, unassigned) [Compound 1, (R*)-(7-fluoro-10,11-dihydrodibenzo[b,f]oxepin-10-yl)methanamine] | ≥ 10000 nM | 1000 to 10000 nM | < 1000 nM | – | –
2 | NCC1Cc2ccccc2Oc2cc(F)ccc21 (single isomer, unassigned) [Compound 2, (S*)-(7-fluoro-10,11-dihydrodibenzo[b,f]oxepin-10-yl)methanamine] | ≥ 10000 nM | < 1000 nM | – | < 1000 nM | –
3 | CNCC1Cc2ccccc2Oc2cc(F)ccc21 (single isomer, unassigned) [Compound 3, (R*)-1-(7-fluoro-10,11-dihydrodibenzo[b,f]oxepin-10-yl)-N-methylmethanamine] | 1000 to 10000 nM | > 10000 nM | < 1000 nM | – | –
4 | CNCC1Cc2ccccc2Oc2cc(F)ccc21 (single isomer, unassigned) [Compound 4, (S*)-1-(7-fluoro-10,11-dihydrodibenzo[b,f]oxepin-10-yl)-N-methylmethanamine] | 1000 to 10000 nM | < 1000 nM | – | < 1000 nM | –
5 | CNCC1Cc2ccccc2Oc2cccnc21 (single isomer, unassigned) [Compound 5, (S*)-1-(10,11-dihydrobenzo[6,7]oxepino[3,2-b]pyridin-11-yl)-N-methylmethanamine] | < 1000 nM | < 1000 nM | < 1000 nM | – | –
6 | CNCC1Cc2ccccc2Oc2cccnc21 (single isomer, unassigned) [Compound 6, (R*)-1-(10,11-dihydrobenzo-[6,7]oxepino[3,2-b]pyridin-11-yl)-N-methylmethanamine] | ≥ 10000 nM | < 1000 nM | 1000 to 10000 nM | – | –
7 | NCC1Cc2ccccc2Oc2cccnc21 (single isomer, unassigned) [Compound 7, (S*)-(10,11-dihydrobenzo[6,7]oxepino[3,2-b]pyridin-11-yl)methanamine] | 1000 to 10000 nM | < 1000 nM | > 10000 nM | – | –
8 | NCC1Cc2ccccc2Oc2cccnc21 (single isomer, unassigned) [Compound 8, (R*)-(10,11-dihydrobenzo[6,7]oxepino[3,2-b]pyridin-11-yl)methanamine] | ≥ 10000 nM | < 1000 nM | – | > 10000 nM | –
9 | NCC1Cc2cccnc2Oc2ccccc21 (single isomer, unassigned) [Compound 17, (R*)-(5,6-dihydrobenzo[6,7]oxepino[2,3-b]pyridin-6-yl)methanamine] | ≥ 10000 nM | < 1000 nM | < 1000 nM | – | –
10 | NCC1Cc2cccnc2Oc2ccccc21 (single isomer, unassigned) [Compound 18, (S*)-(5,6-dihydrobenzo[6,7]oxepino[2,3-b]pyridin-6-yl)methanamine] | ≥ 10000 nM | > 10000 nM | > 10000 nM | – | –
11 | CNCC1Cc2cccnc2Oc2ccccc21 (single isomer, unassigned) [Compound 19, (R*)-1-(5,6-dihydrobenzo[6,7]oxepino[2,3-b]pyridin-6-yl)-N-methylmethanamine] | ≥ 10000 nM | 1000 to 10000 nM | – | – | 1000 to 10000 nM
12 | CNCC1Cc2cccnc2Oc2ccccc21 (single isomer, unassigned) [Compound 20, (S*)-1-(5,6-dihydrobenzo[6,7]oxepino[2,3-b]pyridin-6-yl)-N-methylmethanamine] | ≥ 10000 nM | > 10000 nM | – | – | > 10000 nM
13 | NCC1Cc2ccncc2Oc2ccccc21 (single isomer, unassigned) [Compound 21, (R*)-(5,6-dihydrobenzo[6,7]oxepino[2,3-c]pyridin-6-yl)methanamine] | ≥ 10000 nM | < 1000 nM | 1000 to 10000 nM | – | –
14 | NCC1Cc2ccncc2Oc2ccccc21 (single isomer, unassigned) [Compound 22, (S*)-(5,6-dihydrobenzo[6,7]oxepino[2,3-c]pyridin-6-yl)methanamine] | ≥ 10000 nM | 1000 to 10000 nM | – | 1000 to 10000 nM | –
15 | CNCC1Cc2ccncc2Oc2ccccc21 (single isomer, unassigned) [Compound 23, (R*)-1-(5,6-dihydrobenzo[6,7]oxepino[2,3-c]pyridin-6-yl)-N-methylmethanamine] | < 1000 nM | < 1000 nM | < 1000 nM | – | –
16 | CNCC1Cc2ccncc2Oc2ccccc21 (single isomer, unassigned) [Compound 24, (S*)-1-(5,6-dihydrobenzo[6,7]oxepino[2,3-c]pyridin-6-yl)-N-methylmethanamine] | 1000 to 10000 nM | > 10000 nM | – | < 1000 nM | –
17 | NCC1Cc2ncccc2Oc2ccccc21 (single isomer, unassigned) [Compound 29, (R*)-(10,11-dihydrobenzo[6,7]oxepino[3,2-b]pyridin-10-yl)methanamine] | ≥ 10000 nM | 1000 to 10000 nM | 1000 to 10000 nM | – | –
18 | NCC1Cc2ncccc2Oc2ccccc21 (single isomer, unassigned) [Compound 30, (S*)-(10,11-dihydrobenzo[6,7]oxepino[3,2-b]pyridin-10-yl)methanamine] | ≥ 10000 nM | < 1000 nM | – | 1000 to 10000 nM | –
19 | CNCC1Cc2ncccc2Oc2ccccc21 (single isomer, unassigned) [Compound 31, (R*)-1-(10,11-dihydrobenzo[6,7]oxepino[3,2-b]pyridin-10-yl)-N-methylmethanamine] | ≥ 10000 nM | > 10000 nM | < 1000 nM | – | –
20 | CNCC1Cc2ncccc2Oc2ccccc21 (single isomer, unassigned) [Compound 32, (S*)-1-(10,11-dihydrobenzo[6,7]oxepino[3,2-b]pyridin-10-yl)-N-methylmethanamine] | ≥ 10000 nM | < 1000 nM | – | < 1000 nM | –
21 | NCC1Cc2ncccc2Oc2cc(F)ccc21 (single isomer, unassigned) [Compound 36, (S*)-(7-fluoro-10,11-dihydrobenzo[6,7]oxepino[3,2-b]pyridin-10-yl)methanamine] | ≥ 10000 nM | < 1000 nM | < 1000 nM | – | –
22 | CNC[C@H]1Cc2ncc(F)cc2Oc2ccccc21 (single isomer, unassigned) [Compound 38, (S*)-1-(3-fluoro-10,11-dihydrobenzo[6,7]oxepino[3,2-b]pyridin-10-yl)-N-methylmethanamine] | 1000 to 10000 nM | 1000 to 10000 nM | – | – | < 1000 nM
23 | NCC1Cc2ncc(F)cc2Oc2ccccc21 (single isomer, unassigned) [Compound 39, (R*)-(3-fluoro-10,11-dihydrobenzo[6,7]oxepino[3,2-b]pyridin-10-yl)methanamine] | ≥ 10000 nM | 1000 to 10000 nM | < 1000 nM | – | –
24 | NCC1Cc2ncc(F)cc2Oc2ccccc21 (single isomer, unassigned) [Compound 40, (S*)-(3-fluoro-10,11-dihydrobenzo[6,7]oxepino[3,2-b]pyridin-10-yl)methanamine] | ≥ 10000 nM | < 1000 nM | – | < 1000 nM | –
